Test results reported in US9808428B2, “Compositions and methods for the delivery of therapeutics” (priority 2014, dated 2017).

System: HIV-1ADA
Experiment: Antiretroviral activity by reverse transcriptase (RT) activity in HIV-1 infected MDM
Type: cell-based
Conditions: 30-100 μM; MDM challenged with HIV-1ADA >15 days after 8 hours of treatment
Protocol: The antiretroviral activity was determined by reverse transcriptase (RT) activity and HIV-1 p24 antigen expression in HIV-1 infected MDM. […] Overall, development of long acting targeted MVC, optionally together with reverse transcriptase, protease and/or integrase inhibitors leads to improved pharmacokinetics of cART and promote improved drug adherence and access.

Cc1nnc(C(C)C)n1C1C[C@H]2CC[C@@H](C1)N2CC[C@H](NC(=O)C1CCC(F)(F)CC1)c1ccccc1 (stereo in doubt) [free MVC, maraviroc]
RT activity reductions compared to untreated infected cells: 22%
